The values that follow come from US20260193295A1, “CILAGICIN COMPOUNDS AND METHODS OF USE THEREOF” (priority 2022, published 2026).

The test system of one assay is S. aureus USA300. The experiment in a line: Resistance studies (daily serial passage at sub-MIC). The format is cell-based, Staphylococcus aureus. Conditions: daily serial passage at sub-MIC levels of antibiotic. The procedure: A single colony of S. aureus USA300 was inoculated in 5 mL LB broth and grown overnight at 37° C. with continuous shaking (200 rpm). The overnight culture was then diluted 1:5,000 into fresh LB. 50 μL aliquots of dilute cells were transferred into individual wells of 96-well plates containing 50 μL of serially diluted cilagicin, amphomycin (AG Scientific, USA) or bacitracin (Sigma, USA). Plates were statically incubated at 37° C. After 24 hours, the MIC was recorded. […] The MIC was determined as described above. This process was repeated daily for 25 days. For bacitracin, the LB medium was supplemented with 50 μg/mL ZnCl2. For amphomycin, the medium was supplemented with 100 μg/mL CaCl2-2H2O. Experiments were performed three independent times (n=3).

In the next assay the test system is Streptococcus pneumoniae. The format is cell-based. The procedure:
(§1) MIC assay were conducted using the protocol recommended by the Clinical and Laboratory Standards Institute.(37) Culture conditions (temperature, medium) are detailed in Table 3. All compounds were dissolved in sterile DMSO (ATCC, USA) to give a concentration of 6.4 mg/mL. Vancomycin hydrochloride was used as positive controls. Tested compounds were serially diluted across 96-well plates using a 2-fold serial dilution in a volume of 50 μL. An overnight culture of an assay strain was diluted 5,000-fold in fresh medium. 50 μL of this dilution was added into each well, giving a final volume of 100 μL in each well. Compounds were assayed at concentrations ranging from 64 μg/mL to 0.06 μg/mL. The top and bottom rows of each plate were filled with 100 μL of media to avoid edge effects. […] For Clostridium difficile plates were statically incubated under anaerobic conditions (Vinyl anaerobic chamber, 37° C., 5% H2, 5% CO2, 90% N2). For Streptococcus pneumoniae plates were statically incubated under aerobic conditions supplemented with 5% C02 (37° C.). All MICs were performed in technical duplicate (n=2) and repeated three independent times (n=3).

For another assay, the system named is Streptococcus pyrogens. The format is cell-based. The procedure: as §1
A further assay deals with Staphylococcus aureus. The format is cell-based. The method, then: as §1
In a further assay the test system is Enterococcus faecium. It is filed as cell-based. The procedure: as §1
The test system of another assay is Streptococcus agalactiae. It is filed as cell-based. The procedure: as §1

Converted amounts (≈) assume the structure as drawn. Positions of bridges follow the written chain, without caps; N, C: chain ends. Non-standard residues stand in square brackets, D forms with d. Residues, ends and D or L forms follow the SMILES beside them. *: point of attachment. Ileψ(thiazoline)Cys = CC[C@H](C)[C@H](N)C1=N[C@H](C(=O)*)CS1; Hexanoyl(6-Ph) = O=C(CCCCCc1ccccc1)*; dOrn = NCCC[C@@H](N)C(=O)O; dDab = NCC[C@@H](N)C(=O)O; Dab = NCC[C@H](N)C(=O)O

As for `CC[C@H](C)[C@H](N)C1=N[C@H](C(=O)N[C@@H](CC(C)C)C(=O)N[C@H](CCC(=O)O)C(=O)N[C@H](C(=O)N[C@H]2CCCCNC(=O)[C@H](CC(N)=O)NC(=O)[C@@H](CC(=O)O)NC(=O)[C@H](Cc3cnc[nH]3)NC(=O)[C@@H](Cc3ccccc3)NC(=O)[C@H]([C@@H](C)CC)NC(=O)[C@@H](CCCN)NC2=O)[C@@H](C)CC)CS1` [bacitracin] ({Ileψ(thiazoline)Cys}-L[dE]IK[dOrn]I[dF]H[dD]N; lactam 4-C), the “development of resistance by S. aureus” value in the assay with S. aureus USA300 is recorded as “rapidly developed resistance”.

A word on the MIC: it is the least concentration at which growth counts as inhibited. A lower MIC goes with greater potency. Take `CC(C)[C@@H]1NC(=O)[C@H](Cc2ccc(O)cc2)NC(=O)CNC(=O)[C@@H](CC(=O)O)NC(=O)[C@@H](CC(N)=O)NC(=O)CNC(=O)[C@H](CC(=O)O)NC(=O)[C@@H](CCN)NC(=O)[C@@H](NC(=O)[C@@H](CO)NC(=O)CCCCCc2ccccc2)[C@@H](C)OC(=O)[C@H](Cc2ccccc2)NC(=O)[C@H](CCN)NC1=O` [Cilagicin L3] ({Hexanoyl(6-Ph)}-[dS]T[dDab]DG[dN][dD]GYV[Dab]F; ester 2-C): the MIC against Streptococcus pneumoniae was 4 µg/mL (≈ 2.8 µM); in the assay on Streptococcus pyrogens it was 1 µg/mL (≈ 0.699 µM); against Staphylococcus aureus, 8 µg/mL (≈ 5.59 µM); against Enterococcus faecium it was 64 µg/mL (≈ 44.7 µM); in the assay with Streptococcus agalactiae, 16 µg/mL (≈ 11.2 µM).

In the case of amphomycin, in the assay with S. aureus USA300, the “development of resistance by S. aureus” value is reported as “rapidly developed resistance”.
